Data reported in ChEMBL document CHEMBL1130463, “Chemoenzymatic synthesis and characterization of a new type of carbohydrate-based cationic antimicrobial agents” (1997).

Tests used:
Type in all cases: functional
Vibrio alginolyticus = assay: Minimum inhibitory concentration required for the inhibition of Vibrio alginolyticus
Micrococcus luteus = assay: Minimum inhibitory concentration required for the inhibition of Micrococcus luteus
Fusarium oxysporum = assay: Minimum inhibitory concentration required for the inhibition of Fusarium oxysporum

MIC (Vibrio alginolyticus) [µg/mL]	MIC (Micrococcus luteus) [µg/mL]	MIC (Fusarium oxysporum) [µg/mL]	SMILES
2000	1000		CCCCCCCCCCCCCCCCCCCCCCCCCCCCCC(=O)OC[C@@H]1OC(OCCC[N+](C)(C)C)[C@@H](O)[C@@H](O)[C@@H]1O.[I-] (some centres undefined)
2000	50		CCCCCCCCCCCCCCCCCCCCCCCCCC(=O)OC[C@@H]1OC(OCCC[N+](C)(C)C)[C@@H](O)[C@@H](O)[C@@H]1O.[I-] (some centres undefined)
500	10	500	CCCCCCCCCCCCCCCCCCCCCC(=O)OC[C@@H]1OC(OCCC[N+](C)(C)C)[C@@H](O)[C@@H](O)[C@@H]1O.[I-] (some centres undefined)
2000	2000		CCCCCCCCCCCCCCCCCC(=O)OC[C@@H]1OC(OCCC[N+](C)(C)C)[C@@H](O)[C@@H](O)[C@@H]1O.[I-] (some centres undefined)
